Patent publication US12059425B2, “Heterocyclic compounds and uses thereof” (Kumquat Biosciences Inc., priority 2022, dated 2024)

Experiments:
Assay type in all cases: biochemical
K-Ras G12S = target: T1, K-Ras G12S (Homo sapiens, UniProt P01116, G12S); experiment: PPI-HTRF assay, K-Ras G12S / SOS1 interaction; conditions: read-out: PPI-HTRF-5 nM (K-Ras G12S IC50)
T1 construct: made in house; host or cells: E. coli, e.g. BL21 (DE3)
From the text: (§1) This assay can be also used to assess a selective inhibition or reduction of signaling output of a mutant Ras protein relative to a wildtype, or relative to a different mutant Ras protein. For example, the equilibrium interaction of wildtype Kras or K-Ras mutant (e.g., wildtype or a mutant thereof) with SOS1 (e.g., hSOS1) can be assessed as a proxy or an indication for a subject compound's ability to bind and inhibit Ras protein. HTRF assay detects from (i) a fluorescence resonance energy transfer (FRET) donor (e.g., antiGST-Europium) that is bound to GST-tagged K-Ras mutant to (ii) a FRET acceptor (e.g., anti-6His-XL665) bound to a His-tagged hSOS1.
(§2) The assay buffer can contain ˜5 mM HEPES pH 7.4, ˜150 mM NaCl, ˜1 mM DTT, 0.05% BSA and 0.0025% (v/v) Igepal. A Ras working solution is prepared in an assay buffer containing typically a suitable amount of the protein construct (e.g., GST-tagged K-Ras mutant) and the FRET donor (e.g., antiGST-Eu(K) from Cisbio, France). A SOS1 working solution is prepared in an assay buffer containing suitable amount of the protein construct (e.g., His-hSOS1) and the FRET acceptor (e.g., anti-6His-XL665 from Cisbio, France). A suitable amount of the protein construct will depend on the range of activity or range of IC50 values being detected or under investigation. For detecting IC50 within a range of 500 nM, the protein constructs of the same range of molarity can be utilized.
(§3) A fixed volume of DMSO with or without test compound is transferred into a 384-well plate. Ras working solution is added to all wells of the test plate. SOS1 working solution is added to all wells except for those that are subsequently filled the inhibitor control solution. Upon incubation for about 10 minutes or longer, the fluorescence is measured with a M1000Pro plate reader (Tecan) using HTRF detection (excitation 337 nm, emission 1: 620 nm, emission 2: 665 nm). Compounds are tested in duplicate at different concentrations (for example, 10 μM, 2.5 μM, 0.63 μM, 0.16 μM, 0.04 μM, 0.01 μM test compound). The ratiometric data (i.e., emission 2 divided by emission 1) is used to calculate IC50 values against Ras using GraphPad Prism (GraphPad software). Following this general procedure, samples are tested with or without a subject compound disclosed herein including compounds exemplified in Table 1 to assess their abilities to inhibit a mutant K-Ras relative to another K-Ras (e.g., different mutant or wildtype). Signaling output measured in terms of IC50 values can be obtained, a ratio of IC50 against one mutant relative to another mutant can be calculated. For instance, a selective reduction of K-Ras G12D signaling output can be evidenced by a ratio greater than one. In particular, a selective reduction of K-Ras G12D signaling relative to K-Ras WT signaling is evidenced if the ratio of IC50 (against K-Ras WT) to IC50 (against K-Ras G12D) is greater than 1.

K-Ras G12D = target: T2, K-Ras G12D (Homo sapiens, UniProt P01116, G12D); experiment: PPI-HTRF assay, K-Ras G12D / SOS1 interaction; conditions: HTRF, K-Ras G12D; read-out: PPI-HTRF-5 nM (K-Ras G12D IC50)
T2 construct: made in house; host or cells: E. coli, e.g. BL21 (DE3)
T2 sequence (P01116 1-188 isoform P01116-2 G12D): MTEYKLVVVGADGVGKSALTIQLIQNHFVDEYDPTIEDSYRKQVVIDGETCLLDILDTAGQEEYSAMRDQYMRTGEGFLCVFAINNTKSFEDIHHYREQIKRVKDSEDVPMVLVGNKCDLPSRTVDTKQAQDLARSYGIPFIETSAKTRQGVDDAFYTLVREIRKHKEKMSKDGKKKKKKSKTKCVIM
From the text: as §1, §2, §3

wildtype K-Ras = target: T3, wildtype K-Ras (Homo sapiens, UniProt P01116); experiment: PPI-HTRF assay, wildtype K-Ras / SOS1 interaction; conditions: HTRF, K-Ras wt; read-out: PPI-HTRF-5 nM (K-Ras wt IC50)
T3 construct: made in house; host or cells: E. coli, e.g. BL21 (DE3)
T3 sequence (P01116 1-188 isoform P01116-2): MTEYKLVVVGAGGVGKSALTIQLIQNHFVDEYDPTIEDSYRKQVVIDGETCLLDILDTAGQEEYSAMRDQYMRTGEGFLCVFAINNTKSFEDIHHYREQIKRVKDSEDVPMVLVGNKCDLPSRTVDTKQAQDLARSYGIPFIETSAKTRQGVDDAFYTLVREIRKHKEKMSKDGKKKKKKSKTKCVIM
From the text: as §1, §2, §3

K-Ras G12V = target: T4, K-Ras G12V (Homo sapiens, UniProt P01116, G12V); experiment: PPI-HTRF assay, K-Ras G12V / SOS1 interaction; conditions: HTRF, K-Ras G12V; read-out: PPI-HTRF-5 nM (K-Ras G12V IC50)
T4 construct: made in house; host or cells: E. coli, e.g. BL21 (DE3)
T4 sequence (P01116 1-188 isoform P01116-2 G12V): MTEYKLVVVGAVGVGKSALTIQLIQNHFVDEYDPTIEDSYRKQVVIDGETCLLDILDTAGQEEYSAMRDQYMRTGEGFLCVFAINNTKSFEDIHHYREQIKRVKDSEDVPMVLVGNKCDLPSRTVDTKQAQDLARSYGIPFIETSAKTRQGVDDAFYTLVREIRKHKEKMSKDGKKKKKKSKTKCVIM
From the text: as §1, §2, §3

T1 sequence (P01116 1-188 isoform P01116-2 G12S): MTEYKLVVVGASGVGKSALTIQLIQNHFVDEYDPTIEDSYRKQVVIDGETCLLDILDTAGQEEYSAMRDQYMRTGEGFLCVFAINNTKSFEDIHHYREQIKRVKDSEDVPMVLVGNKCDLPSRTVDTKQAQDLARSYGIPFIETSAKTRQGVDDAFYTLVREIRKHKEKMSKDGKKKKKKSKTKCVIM

SMILES | IC50 (K-Ras G12S) [µM] | IC50 (K-Ras G12D) [µM] | IC50 (wildtype K-Ras) [µM] | IC50 (K-Ras G12V) [µM]
CN1c2nc(OC[C@@]34CCCN3C[C@H](F)C4)nc3c(F)c(-c4ccc(F)c5sc(N)c(C#N)c45)c(Cl)c(c23)OC2CN(C(=O)C(F)F)CC21 (stereo partly drawn) [compound 147, 2-amino-4-(6-chloro-9-(2,2-difluoroacetyl)-4-fluoro-2-(((2R,7aS)-2-fluorotetrahydro-1H-pyrrolizin-7a(5H)-yl)methoxy)-11-methyl-7a,8,9,10,10a,11-hexahydropyrrolo[3′,4′:2,3][1,4]oxazepino [5,6,7-de]quinazolin-5-yl)-7-fluorobenzo[b]thiophene-3-carbonitrile] | < 5 | < 5 | < 5 | < 5
N#Cc1c(N)sc2c(F)ccc(-c3c(Cl)c4c5c(nc(OC[C@@]67CCCN6C[C@H](F)C7)nc5c3F)N3C[C@@H](N)C[C@H]3CO4)c12 [compound 191, 2-amino-4-((8aS,10S)-10-amino-6-chloro-4-fluoro-2-(((2R,7aS)-2-fluorotetrahydro-1H-pyrrolizin-7a(5H)-yl)methoxy)-8a,9,10,11-tetrahydro-8H-pyrrolo[2′,1′:3,4][1,4]oxazepino[5,6,7-de]quinazolin-5-yl)-7-fluorobenzo[b]thiophene-3-carbonitrile] | < 5 | < 5 | < 5 | < 5
N#Cc1c(N)sc2c(F)ccc(-c3c(Cl)c4c5c(nc(OC[C@@]67CCCN6C[C@H](F)C7)nc5c3F)N3C[C@H](N)C[C@H]3CO4)c12 [compound 195, 2-amino-4-((8aS,10R)-10-amino-6-chloro-4-fluoro-2-(((2R,7aS)-2-fluorotetrahydro-1H-pyrrolizin-7a(5H)-yl)methoxy)-8a,9,10,11-tetrahydro-8H-pyrrolo[2′,1′:3,4][1,4]oxazepino[5,6,7-de]quinazolin-5-yl)-7-fluorobenzo[b]thiophene-3-carbonitrile] | < 5 | < 5 | < 5 | < 5
N#Cc1c(N)sc2c(F)ccc(-c3c(Cl)c4c5c(nc(OC[C@@]67CCCN6C[C@H](F)C7)nc5c3F)N(CC(F)F)C3CN(C=O)CC3O4)c12 (stereo partly drawn) [compound 201, 2-amino-4-(6-chloro-11-(2,2-difluoroethyl)-4-fluoro-2-(((2R,7aS)-2-fluorotetrahydro-1H-pyrrolizin-7a(5H)-yl)methoxy)-9-formyl-7a,8,9,10,10a,11-hexahydropyrrolo[3′,4′:2,3][1,4]oxazepino [5,6,7-de]quinazolin-5-yl)-7-fluorobenzo[b]thiophene-3-carbonitrile] | < 5 | < 5 | < 5 | < 5
CC(O)C1C[C@H]2CCCN2c2nc(OC[C@@]34CCCN3C[C@H](F)C4)nc3c(F)c(-c4ccc(F)c5sc(N)c(C#N)c45)c(Cl)c(c23)O1 (single isomer, unassigned) [compound 122] | < 5 | – | < 5 | < 5
N#Cc1c(N)sc2c(F)ccc(-c3c(Cl)c4c5c(nc(OC[C@@]67CCCN6C[C@H](F)C7)nc5c3F)N3CCC(C(F)F)CC3CO4)c12 (stereo partly drawn) [compound 194, 2-amino-4-(6-chloro-10-(difluoromethyl)-4-fluoro-2-(((2R,7aS)-2-fluorotetrahydro-1H-pyrrolizin-7a(5H)-yl)methoxy)-8,8a,9,10,11,12-hexahydropyrido[2′,1′:3,4][1,4]oxazepino [5,6,7-de]quinazolin-5-yl)-7-fluorobenzo[b]thiophene-3-carbonitrile] | < 5 | < 5 | < 5 | < 5
CC(O)C1C[C@H]2CCCN2c2nc(OC[C@@]34CCCN3C[C@H](F)C4)nc3c(F)c(-c4ccc(F)c5sc(N)c(C#N)c45)c(Cl)c(c23)O1 (single isomer, unassigned) [compound 160] | – | < 5 | – | –
CN1c2nc(OC[C@@]34CCCN3C[C@H](F)C4)nc3c(F)c(-c4ccc(F)c5sc(N)c(C#N)c45)c(Cl)c(c23)OCC2OCCCC21 (stereo partly drawn) [compound 199, 2-amino-4-(6-chloro-4-fluoro-2-(((2R,7aS)-2-fluorotetrahydro-1H-pyrrolizin-7a(5H)-yl)methoxy)-13-methyl-8,8a,11,12,12a,13-hexahydro-10H-pyrano[3′,2′:6,7][1,5]oxazocino[4,3,2-de]quinazolin-5-yl)-7-fluorobenzo[b]thiophene-3-carbonitrile] | < 5 | < 5 | < 5 | < 5
N#Cc1c(N)sc2c(F)ccc(-c3c(Cl)c4c5c(nc(OC[C@@]67CCCN6C[C@H](F)C7)nc5c3F)N3CCC[C@@H]3CC(C(F)F)O4)c12 (single isomer, unassigned) [compound 123] | < 5 | – | < 5 | < 5
CN1c2nc(OC[C@@]34CCCN3C[C@H](F)C4)nc3c(F)c(-c4ccc(F)c5sc(N)c(C#N)c45)c(Cl)c(c23)OCC2CCCC21 (stereo partly drawn) [compound 165, 2-amino-4-(6-chloro-4-fluoro-2-(((2R,7aS)-2-fluorotetrahydro-1H-pyrrolizin-7a(5H)-yl)methoxy)-12-methyl-8a,9,10,11,11a,12-hexahydro-8H-cyclopenta[6,7][1,5]oxazocino[4,3,2-de]quinazolin-5-yl)-7-fluorobenzo[b]thiophene-3-carbonitrile] | – | < 5 | – | –
CN1c2nc(OC[C@@]34CCCN3C[C@H](F)C4)nc3c(F)c(-c4ccc(F)c5sc(N)c(C#N)c45)c(Cl)c(c23)OCC2COCCC21 (stereo partly drawn) [compound 198, 2-amino-4-(6-chloro-4-fluoro-2-(((2R,7aS)-2-fluorotetrahydro-1H-pyrrolizin-7a(5H)-yl)methoxy)-13-methyl-8a,9,11,12,12a,13-hexahydro-8H-pyrano[4′,3′:6,7][1,5]oxazocino[4,3,2-de]quinazolin-5-yl)-7-fluorobenzo[b]thiophene-3-carbonitrile] | < 5 | < 5 | < 5 | < 5
N#Cc1c(N)sc2c(F)ccc(-c3c(Cl)c4c5c(nc(OC[C@@]67CCCN6C[C@H](F)C7)nc5c3F)N3CCC(F)(F)CC3CO4)c12 (stereo partly drawn) [compound 203, 2-amino-4-(6-chloro-4,10,10-trifluoro-2-(((2R,7aS)-2-fluorotetrahydro-1H-pyrrolizin-7a(5H)-yl)methoxy)-8,8a,9,10,11,12-hexahydropyrido[2′,1′:3,4][1,4]oxazepino [5,6,7-de]quinazolin-5-yl)-7-fluorobenzo[b]thiophene-3-carbonitrile] | < 5 | < 5 | < 5 | < 5
CC(C)C1NCC12CC[C@H]1COc3c(Cl)c(-c4ccc(F)c5sc(N)c(C#N)c45)c(F)c4nc(OC[C@@]56CCCN5C[C@H](F)C6)nc(c34)N1C2 (single isomer, unassigned) [compound 130] | < 5 | – | < 5 | < 5
CC(C)C1NCC12CC[C@H]1COc3c(Cl)c(-c4ccc(F)c5sc(N)c(C#N)c45)c(F)c4nc(OC[C@@]56CCCN5C[C@H](F)C6)nc(c34)N1C2 (single isomer, unassigned) [compound 179] | > 5 | < 5 | – | –
